In patent US20170080026A1, “METHOD AND COMPOUND FOR OPENING POTASSIUM CHANNELS OF MAMMAL VASCULAR SMOOTH MUSCLES IN A REMOTE CONTROL MANNER” (Tovaristvo Z Obmezhenou Vidpovidalnistu "Nanomedtrast", priority 2015, published 2017):
Like-named read-outs stand apart in the source and are kept apart here.

Test system: outgoing potassium current (IK) in rat thoracic aorta SM cells
Test: Whole-cell outgoing K+ current (IK) recording in isolated thoracic aorta smooth muscle cells
Assay type: cell-based
Protocol: C, D show effects of potassium channel blockers (paxillin, 500 nM, and […] 10 mm) on the outgoing potassium current in smooth muscle cells of thoracic aorta not exposed to Au NPs (C) and exposed to Au NPs (D). Currents caused by single step excitations with an amplitude of 10 mV and 300 ms increments within −100 and +70 mV of outgoing potential at −60 mV.
Currents in each cell (except for leakage current) were converted into specific […], averaged and depicted versus membrane potential (mV). The data thus obtained were brought in consistency using the standard Boltzmann function with average parameters described herein. The resulting current-voltage characteristics (curves I-V) were obtained by measuring current at the end of an impulse. The data represent mean values of ±SEM (n=8).
For the purposes of the study, smooth muscle cells isolated from rat thoracic aorta using collagenase and pronase were taken. Rats were anesthetised with ketamine (37.5 mg/kg body weight, intraperitoneally) and xylazine (10 mg/kg body weight, intraperitoneally), and thoracic aorta about 1.0 . . . 1.5 cm long was removed and denuded to make it free from connective tissue. Aorta was cut into small pieces (1.5×1.5 mm) in the cooled low Ca^2+ ion content solution comprising (in mM): NaCl 140, KCl 6, MgCl2 3, D-glucose 10, HEPES 10 (pH 7.4) for 15 minutes. Vascular tissues were placed in fresh low Ca^2+ ion content solution comprising collagenase type IA 2 mg/mL (417 U/mg), pronase type E XXV 0.5 mg/ml, and bovine albumin serum 2 mg/ml. Then tissues were incubated for 30 minutes at a temperature of +37 ° C. After incubation, tissues were washed (for 2-3 minutes) twice in fresh low Ca^2+ ion content solution to remove enzymes. Cells were dispersed by stirring using a glass pipette and then placed in modified Krebs bicarbonate buffer. A certain number of muscle cells was maintained at a temperature of […] and remained functional for at least 4 hours. […]

`CC(C)(O)[C@H]1O[C@H]2CC[C@@]3(C)[C@@](O)(CC[C@H]4Cc5c([nH]c6ccccc56)[C@@]43C)C2=CC1=O` [Paxillin, paxillin] was tested, and the “effect on Au NPs-induced IK increment” value (SM cells exposed to Au NPs) was “stopped Au NPs-induced IK increment”.
For `CC[N+](CC)(CC)CC` [tetraethylammonium], the “effect on Au NPs-induced IK increment” value was “stopped Au NPs-induced IK increment” and the outgoing current was 3±1 pA/pF.
